Assay results reported in PMC7054097, “Vanillin Production in Pseudomonas: Whole-Genome Sequencing of Pseudomonas sp. Strain 9.1 and Reannotation of Pseudomonas putida CalA as a Vanillin Reductase” (Applied and Environmental Microbiology, 2020).

What was measured:
[1] = molecular target: T1, PP_3839 (adhP) gene product; calA-II (coniferyl alcohol dehydrogenase) (Pseudomonas putida, UniProt Q88G86); experiment: soluble cell extract, absorbance at […] nm; assay type: biochemical; conditions: 0.5 mM NAD+, 1 mM coniferyl alcohol, 33 mM sodium phosphate pH 7, 30 °C
T1 construct: whole cells or soluble extract

[2] = molecular target: T1, PP_3839 (adhP) gene product; calA-II (coniferyl alcohol dehydrogenase); experiment: soluble cell extract, absorbance at […] nm; also whole-cell HPLC; assay type: biochemical; conditions: 1 mM substrate, 0.5 mM NAD+, 33 mM sodium phosphate pH 7, 30 °C

T1 sequence (Q88G86 1-336): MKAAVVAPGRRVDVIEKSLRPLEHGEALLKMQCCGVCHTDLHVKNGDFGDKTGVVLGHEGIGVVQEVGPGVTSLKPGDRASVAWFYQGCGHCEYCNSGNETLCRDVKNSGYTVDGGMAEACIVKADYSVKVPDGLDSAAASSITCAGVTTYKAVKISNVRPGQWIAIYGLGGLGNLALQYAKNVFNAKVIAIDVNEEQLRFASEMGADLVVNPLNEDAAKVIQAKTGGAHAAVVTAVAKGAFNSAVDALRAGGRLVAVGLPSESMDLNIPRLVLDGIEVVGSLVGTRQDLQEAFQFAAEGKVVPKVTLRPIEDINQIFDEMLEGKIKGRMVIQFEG

| Structure (SMILES) | soluble cell extract, absorbance at 365 nm [1] | soluble cell extract, absorbance at 365 nm; also whole-cell HPLC [2] |
| --- | --- | --- |
| NC(=O)c1ccc[n+]([C@@H]2O[C@H](COP(=O)(O)OP(=O)(O)OC[C@H]3O[C@@H](n4cnc5c(N)ncnc54)[C@H](O)[C@@H]3O)[C@@H](O)[C@H]2O)c1 [NAD^+] | coniferyl alcohol was rapidly oxidized in the presence of NAD^+ | – |
| COc1cc(/C=C/CO)ccc1O [coniferyl alcohol] | – | coniferyl alcohol was rapidly oxidized in the presence of NAD^+ |
